According to patent US10364263B2, “Cyclic phosphates and cyclic phosphoramidates for the treatment of neurologic disorders” (Retrophin, Inc., priority 2015, dated 2019):

System: PANK2 silenced human neuroblastoma IMR32 cells (PANK2−/−)
Experiment: Coenzyme A assay in PANK2 silenced cells (LC-MS quantification of free CoA)
Assay type: cell-based
Conditions: compound added twice (24 h + 24 h), relative to 0.1% DMSO controls
Procedure, shortened: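 Free intracellular CoA was measured by positive-mode LC-MS/MS of 20% TFA extracts, taking 2 μl per 10^6 cells as intracellular volume. Cells were IMR32 with stable lentiviral PANK2 knockdown, dosed twice 24 h apart (48 h total, 0.1% DMSO). Output is fold increase over vehicle.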

Compound	PANK2−/− CoA (Fold Increase): fold increase in Coenzyme A (CoA) levels relative to controls
COC(=O)CCNC(=O)[C@@H]1O[P@](=O)(OCOC(=O)c2scnc2C(C)C)OCC1(C)C [2-188, (((2R,4R)-4-((3-methoxy-3-oxopropyl)carbamoyl)-5,5-dimethyl-2-oxido-1,3,2-dioxaphosphinan-2-yl)oxy)methyl 4-isopropylthiazole-5-carboxylate]	131.48 Fold Increase
COC(=O)CCNC(=O)[C@@H]1OP(=O)(OCOC(=O)[C@@H]2COC(=O)N2C(=O)OC(C)(C)C)OCC1(C)C (stereo partly drawn) [2-189, 3-(tert-butyl) 4-((((4R)-4-((3-methoxy-3-oxopropyl)carbamoyl)-5,5-dimethyl-2-oxido-1,3,2-dioxaphosphinan-2-yl)oxy)methyl) (4S)-2-oxooxazolidine-3,4-dicarboxylate]	3.86 Fold Increase
COC(=O)CCNC(=O)[C@@H]1O[P@](=O)(OCOC(=O)c2cc(C)nn2C)OCC1(C)C [2-190, (((2R,4R)-4-((3-methoxy-3-oxopropyl)carbamoyl)-5,5-dimethyl-2-oxido-1,3,2-dioxaphosphinan-2-yl)oxy)methyl 1,3-dimethyl-1H-pyrazole-5-carboxylate]	52.24 Fold Increase
COC(=O)CCNC(=O)[C@@H]1O[P@@](=O)(OCOC(=O)c2scnc2C(C)(C)C)OCC1(C)C [2-192, (((2S,4R)-4-((3-methoxy-3-oxopropyl)carbamoyl)-5,5-dimethyl-2-oxido-1,3,2-dioxaphosphinan-2-yl)oxy)methyl 4-(tert-butyl)thiazole-5-carboxylate]	2.52 Fold Increase
COC(=O)CCNC(=O)[C@@H]1O[P@](=O)(OCOC(=O)NCCSC(=O)[C@@H](N)C(C)C)OCC1(C)C [2-193, methyl 3-((2R,4R)-2-((((2-((L-valyl)thio)ethyl)carbamoyl)oxy)methoxy)-5,5-dimethyl-2-oxido-1,3,2-dioxaphosphinane-4-carboxamido)propanoate]	5.03 Fold Increase
COC(=O)CCNC(=O)[C@@H]1O[P@@](=O)(OCOC(=O)NCCSC(=O)[C@@H](N)C(C)C)OCC1(C)C [2-194, methyl 3-((2S,4R)-2-((((2-((L-valyl)thio)ethyl)carbamoyl)oxy)methoxy)-5,5-dimethyl-2-oxido-1,3,2-dioxaphosphinane-4-carboxamido)propanoate]	11.44 Fold Increase
COC(=O)CCNC(=O)[C@@H]1OP(=O)(OCOC(=O)NCCOC(=O)[C@@H](N)C(C)C)OCC1(C)C (stereo partly drawn) [2-195, 2-((((((4R)-4-((3-methoxy-3-oxopropyl)carbamoyl)-5,5-dimethyl-2-oxido-1,3,2-dioxaphosphinan-2-yl)oxy)methoxy)carbonyl)amino)ethyl L-valinate]	1.91 Fold Increase
COC(=O)CCNC(=O)[C@@H]1OP(=O)(OCOC(=O)[C@H]2COC(=O)N2C(=O)OC(C)(C)C)OCC1(C)C (stereo partly drawn) [2-196, 3-(tert-butyl) 4-((((4R)-4-((3-methoxy-3-oxopropyl)carbamoyl)-5,5-dimethyl-2-oxido-1,3,2-dioxaphosphinan-2-yl)oxy)methyl) (4R)-2-oxooxazolidine-3,4-dicarboxylate]	1.97 Fold Increase
COC(=O)CCNC(=O)[C@@H]1O[P@](=O)(Oc2ccc(C(F)(F)F)cc2)OCC1(C)C [2-197, methyl 3-((2R,4R)-5,5-dimethyl-2-oxido-2-(4-(trifluoromethyl)phenoxy)-1,3,2-dioxaphosphinane-4-carboxamido)propanoate]	101.95 Fold Increase
COC(=O)CCNC(=O)[C@@H]1O[P@](=O)(Oc2ccc(C(F)(F)F)nc2)OCC1(C)C [2-198, methyl 3-((2R,4R)-5,5-dimethyl-2-oxido-2-((6-(trifluoromethyl)pyridin-3-yl)oxy)-1,3,2-dioxaphosphinane-4-carboxamido)propanoate]	13.6 Fold Increase
COC(=O)CCNC(=O)[C@@H]1O[P@@](=O)(OCOC(=O)N[C@@H](CSC(=O)C(C)(C)C)C(=O)OCC(=O)c2ccccc2)OCC1(C)C [2-199, 2-oxo-2-phenylethyl N-(((((2S,4R)-4-((3-methoxy-3-oxopropyl)carbamoyl)-5,5-dimethyl-2-oxido-1,3,2-dioxaphosphinan-2-yl)oxy)methoxy)carbonyl)-S-pivaloyl-L-cysteinate]	1.98 Fold Increase
COC(=O)CCNC(=O)[C@@H]1O[P@@](=O)(OCOC(=O)N[C@@H](CSC(=O)C(C)(C)C)C(=O)O)OCC1(C)C [2-200, N-(((((2S,4R)-4-((3-methoxy-3-oxopropyl)carbamoyl)-5,5-dimethyl-2-oxido-1,3,2-dioxaphosphinan-2-yl)oxy)methoxy)carbonyl)-S-pivaloyl-L-cysteine]	1.84 Fold Increase
COC(=O)CCNC(=O)[C@@H]1O[P@](=O)(OCOC(=O)N[C@@H](CSC(=O)C(C)(C)C)C(=O)O)OCC1(C)C [2-201, N-(((((2R,4R)-4-((3-methoxy-3-oxopropyl)carbamoyl)-5,5-dimethyl-2-oxido-1,3,2-dioxaphosphinan-2-yl)oxy)methoxy)carbonyl)-S-pivaloyl-L-cysteine]	0.92 Fold Increase
COC(=O)CCNC(=O)[C@@H]1OP(=O)(OCOC(=O)N[C@@H](CSC(=O)C(C)(C)C)C(=O)OCC(=O)c2ccccc2)OCC1(C)C (stereo partly drawn) [2-202, 2-oxo-2-phenylethyl N-(((((4R)-4-((3-methoxy-3-oxopropyl)carbamoyl)-5,5-dimethyl-2-oxido-1,3,2-dioxaphosphinan-2-yl)oxy)methoxy)carbonyl)-S-pivaloyl-L-cysteinate]	2.62 Fold Increase
COC(=O)CCNC(=O)[C@@H]1O[P@](=O)(OCOC(=O)N[C@@H](CSC(=O)C(C)(C)C)C(=O)OCc2ccccc2)OCC1(C)C [2-206, benzyl N-(((((2R,4R)-4-((3-methoxy-3-oxopropyl)carbamoyl)-5,5-dimethyl-2-oxido-1,3,2-dioxaphosphinan-2-yl)oxy)methoxy)carbonyl)-S-pivaloyl-L-cysteinate]	64.41 Fold Increase
CC(C)(C)OC(=O)CCNC(=O)[C@@H]1OP(=O)(O)OCC1(C)C [Compound No. 2-111, tert-butyl 3-((4R)-2-hydroxy-5,5-dimethyl-2-oxido-1,3,2-dioxaphosphinane-4-carboxamido)propanoate]	1.16 Fold Increase
COC(=O)CCNC(=O)[C@@H]1OP(=O)(Oc2ccc([N+](=O)[O-])cc2)OCC1(C)C (stereo partly drawn) [Compound No. 2-134, Methyl 3-((4R)-5,5-dimethyl-2-(4-nitrophenoxy)-2-oxido-1,3,2-dioxaphosphinane-4-carboxamido)propanoate]	5.37 Fold Increase
COC(=O)CCNC(=O)[C@@H]1OP(=O)(OCOC(=O)c2ccno2)OCC1(C)C (stereo partly drawn) [Compound No. 2-141, (((4R)-4-((3-methoxy-3-oxopropyl)carbamoyl)-5,5-dimethyl-2-oxido-1,3,2-dioxaphosphinan-2-yl)oxy)methyl isoxazole-5-carboxylate]	7.62 Fold Increase
CC(C)(C)OC(=O)CCNC(=O)[C@@H]1O[P@](=O)(OCc2ccccc2)OCC1(C)C [Compound No. 63, tert-butyl 3-((4R)-2-(benzyloxy)-5,5-dimethyl-2-oxido-1,3,2-dioxaphosphinane-4-carboxamido)propanoate]	2.24 Fold Increase
CCCC(=O)OCOP1(=O)OCC(C)(C)[C@H](C(=O)NCCC(=O)OC)O1 (stereo partly drawn) [Compound No. 66, (((4R)-4-((3-methoxy-3-oxopropyl)carbamoyl)-5,5-dimethyl-2-oxido-1,3,2-dioxaphosphinan-2-yl)oxy)methyl butyrate]	83.72 Fold Increase
COC(=O)CCNC(=O)[C@@H]1OP(=O)(OCOC(=O)c2cnco2)OCC1(C)C (stereo partly drawn) [Compound No. 87, (((4R)-4-((3-methoxy-3-oxopropyl)carbamoyl)-5,5-dimethyl-2-oxido-1,3,2-dioxaphosphinan-2-yl)oxy)methyl oxazole-5-carboxylate]	58.7 Fold Increase
CC(C)(C)C(=O)OCOP1(=O)OCC(C)(C)[C@H](C(=O)NCCC(=O)OCc2ccncc2)O1 (stereo partly drawn) [Compound No. 101, (((4R)-5,5-dimethyl-2-oxido-4-((3-oxo-3-(pyridin-4-ylmethoxy)propyl)carbamoyl)-1,3,2-dioxaphosphinan-2-yl)oxy)methyl pivalate]	81.66 Fold Increase
CC(C)OC(=O)OCOP1(=O)OCC(C)(C)[C@H](C(=O)NCCC(=O)O)O1 (stereo partly drawn) [Compound No. 104, 3-((4R)-2-(((isopropoxycarbonyl)oxy)methoxy)-5,5-dimethyl-2-oxido-1,3,2-dioxaphosphinane-4-carboxamido)propanoic acid]	75.24 Fold Increase
CCOC(=O)[C@H](CCc1ccccc1)NP1(=O)OCC(C)(C)[C@H](C(=O)NCCC(=O)OC)O1 (stereo partly drawn) [compound 6, ethyl (2S)-2-[[(4R)-4-[(3-methoxy-3-oxo-propyl)carbamoyl]-5,5-dimethyl-2-oxo-1,3,2-dioxaphosphinan-2-yl]amino]-4-phenyl-butanoate]	1.11 Fold Increase
CCOC(=O)[C@H](CC(C)C)NP1(=O)OCC(C)(C)[C@H](C(=O)NCCC(=O)OC)O1 (stereo partly drawn) [compound 8, ethyl ((4R)-4-((3-methoxy-3-oxopropyl)carbamoyl)-5,5-dimethyl-2-oxido-3,3,2-dioxaphosphinan-2-yl)-L-leucinate]	0.69 Fold Increase
